# Assay results as given in ChEMBL document CHEMBL1201862, “PubChem BioAssay data set” (2004).
# Active and inactive are the calls of the source.
# Assays:
# Major prion protein = Major prion protein (Homo sapiens, UniProt P04156); type: functional, cell-based
# cells [1] = assay: cells
# Albumin = Albumin (Bos taurus, UniProt P02769); assay: Counterscreen for inhibitors of T-cell receptor (TCR)-CD3 interaction: Fluorescence-based biochemical high throughput dose response assay to identify inhibitors of T-cell receptor (TCR)-CD3 interaction using a TAMRA-labeled BSA probe.; type: functional
# [2] = Trypanosoma cruzi growth suppression in host cells – NIH3T3 host cells, beta-gal luminescence, confirmation (AID 2044); type: functional, cell-based;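 also: intracellular parasites grown in NIH/3T3 mouse fibroblasts as host cells; luminescent beta-galactosidase reporter signal from transgenic T. cruzi replicating inside host cells; inhibitors lower the luminescence signal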
# [3] = NIH3T3 cell viability loss – ATP luminescence, mouse fibroblasts, counter-screen, dose response (AID 2010); type: functional, cell-based;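 also: cells exposed to compound for about 90 hours before reading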
# Galanin receptor type 3 = Galanin receptor type 3 (Homo sapiens, UniProt O60755); assay: Fluorescence-based cell-based primary high throughput dose response assay to identify antagonists of the Galanin Receptor 3 (GalR3).; type: functional
# cells [4] = type: functional, cell-based; details: HEK-CNG
# Caspase-6 = Caspase-6 (Homo sapiens, UniProt P55212); assay: inhibition of CASP6 peptide cleavage – biochemical, VEID-R110 fluorescence, cherry-pick, dose response (AID 720632)
# [5] = T. cruzi growth inhibition in host cells, dose response, cell-based, plate reader, dry powder, set 2 (AID 652275); type: functional
# HeLa = assay: viability loss in HeLa cells – cell-based, ATP luminescence, cherry-pick samples, cytotoxicity control, dose response (AID 687004); type: functional; details: Homo sapiens
# [6] = biological target: 1-phosphatidylinositol 4,5-bisphosphate phosphodiesterase gamma-1 (Homo sapiens, UniProt P19174); assay: Counterscreen for inhibitors of phospholipase C isozymes (PLC-B3): Fluorescence-based biochemical high throughput dose response assay to identify inhibitors of phospholipase C isozymes (PLC-gamma1).
# [7] = biological target: 1-phosphatidylinositol 4,5-bisphosphate phosphodiesterase beta-3 (Homo sapiens, UniProt Q01970); assay: Fluorescence-based biochemical high throughput dose response assay to identify inhibitors of phospholipase C isozymes (PLC-B3).
# [8] = biological target: Heat shock protein HSP 90-alpha (Homo sapiens, UniProt P07900); type: functional, organism-based
# Interleukin-8 = biological target: T1, Interleukin-8 (Homo sapiens, UniProt P10145); assay: Dose Response confirmation of uHTS small molecule hits for cystic fibrosis induced NFkb Inhibitors in a PAF-induced IL8 counterscreen.; type: functional; details: read-out: IC50_Mean
# T1 sequence (P10145 whole entry): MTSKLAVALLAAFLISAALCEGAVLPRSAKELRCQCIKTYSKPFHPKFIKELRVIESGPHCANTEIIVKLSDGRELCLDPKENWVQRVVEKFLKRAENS
# Protein Wnt-3a = Protein Wnt-3a (Mus musculus, UniProt P27467); assay: SAR analysis of small molecule antagonists of Gli-SUFU in a Wnt3a luminescent reporter assay.; type: functional
# [9] = biological target: T2, COUP transcription factor 2 (Homo sapiens, UniProt P24468); assay: Luminescence-based cell-based high throughput dose response assay to identify inhibitors of COUP-TFII (NR2F2).; type: functional;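 also: HEK293 cells transiently cotransfected with COUP-TFII expression vector and reporter; luciferase reporter luminescence driven by COUP-TFII from the pX2-168 reporter plasmid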
# T2 sequence (P24468 whole entry): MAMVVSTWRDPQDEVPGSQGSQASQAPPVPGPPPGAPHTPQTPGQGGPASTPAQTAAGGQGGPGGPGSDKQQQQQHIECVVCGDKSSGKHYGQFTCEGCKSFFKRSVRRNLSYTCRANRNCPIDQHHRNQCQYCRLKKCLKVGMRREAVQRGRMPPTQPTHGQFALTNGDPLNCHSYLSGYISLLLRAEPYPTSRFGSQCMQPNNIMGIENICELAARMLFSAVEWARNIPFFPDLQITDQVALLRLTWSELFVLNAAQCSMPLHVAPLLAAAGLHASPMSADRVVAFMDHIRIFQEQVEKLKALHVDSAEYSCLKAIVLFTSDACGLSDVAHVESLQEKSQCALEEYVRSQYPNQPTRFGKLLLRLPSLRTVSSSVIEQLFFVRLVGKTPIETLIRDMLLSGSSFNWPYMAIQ
# Cytochrome P450 2C9 = Cytochrome P450 2C9 (Homo sapiens, UniProt P11712)
smiles,measurement,setting,value
CC(C)c1nc(SCC(=O)Nc2nccs2)c2ccccc2n1,IC50,Major prion protein,2.4 µM (active)
same,IC50,cells [1],> 138 µM (inactive)
C=CCn1c(O)c(N=NC(=O)CNC(=O)/C=C/c2ccco2)c2ccccc21,IC50,Albumin,> 94.1 µM (inactive)
O=C(CN1CCC(c2nc3ccccc3s2)CC1)NCc1cccs1,EC50,[2],0.646 µM (active)
same,EC50,[3],> 30 µM (not active)
same,IC50,Galanin receptor type 3,1.39 µM (active)
same,EC50,cells [4],> 29.9 µM (inactive)
O=C(Nc1cccc(C(F)(F)F)c1)c1cccc(NS(=O)(=O)c2ccc(O)c(C(=O)O)c2)c1,AC50,Caspase-6,40.3 µM (active)
CC(C)N1CC2(CN(CCc3ccccc3)C2)Oc2c(NC(=O)c3ccncc3)cccc2C1=O,AC50,[5],0.252 µM (active)
Cc1ccc(-n2ncc3c(SCC(N)=O)ncnc32)cc1C,AC50,HeLa,> 52 µM (inactive)
COc1ccc(CCN(C)C(=O)CN2C(=O)NC3(CCCc4ccccc43)C2=O)cc1OC (configuration not stated),IC50,[6],> 122 µM (inactive)
same,IC50,[7],> 122 µM (inactive)
Cc1ccc(-c2onc3ccc(C(=O)/C=C/N(C)C)cc23)cc1,AC50,[8],4.11 µM (active)
same,IC50,Interleukin-8,17.9 µM (inactive)
CC(C)N1C[C@H](CN(C)Cc2ccc(Cl)cc2)Oc2c(NC(=O)c3ccncc3)cccc2C1=O,AC50,[5],0.00393 µM (active)
CC(C)(C)Nc1cc(NC(=O)c2ccccc2)ncn1,IC50,Protein Wnt-3a,> 21.8 µM (inactive)
CNC(=S)NNC(=O)c1cccn(Cc2ccccc2)c1=O,IC50,Albumin,> 94.2 µM (inactive)
NC(=O)c1nnn(Cc2cc(Cl)c(C(=O)c3ccc(Cl)cc3)c(Cl)c2)c1N [CARBOXYAMIDOTRIAZOLE],IC50,Galanin receptor type 3,0.303 µM (active)
same,EC50,cells [4],> 29.9 µM (inactive)
same,IC50,[9],9.21 µM (active)
same,AC50,Cytochrome P450 2C9,inconclusive
C[C@@H]1CCCCO[C@H](CN(C)Cc2ccc3c(c2)OCO3)[C@H](C)CN([C@H](C)CO)C(=O)c2cc(NC(=O)Nc3cccc4ccccc34)ccc2O1,AC50,HeLa,20.1 µM (active)
